Test results reported in paper PMC11876601 (Molecular Systems Biology, 2025).
Where two headings read alike, the source gives them in different places.

Experiments:
TANK = test system: TANK; set-up: method as in Klaeger et al. (2017); details: lysate 4 cell line mix (Colo205, K-562, MV-4-11, and SK-N-BE(2)), Kinobeads y, ref Klaeger et al. (2017); cited from earlier work
BTK = target: BTK; set-up: method as in Reinecke et al. (2023); details: 5 cell line mix lysate, Kinobeads ε, ref Reinecke et al. (2023), cited from earlier work
IRAK3 = details: IRAK3, 5 cell line mix lysate, Kinobeads ε, ref Reinecke et al. (2023), cited from earlier work
BCR = details: 5 cell line mix lysate, Kinobeads ε, ref Reinecke et al. (2023), cited from earlier work
FLT4 = test system: FLT4; set-up: method as in Reinecke et al. (2023); details: FLT4, 5 cell line mix lysate, Kinobeads ε, ref Reinecke et al. (2023), cited from earlier work
FES = target: FES; set-up: method as in Reinecke et al. (2023); details: 5 cell line mix lysate, Kinobeads ε, ref Reinecke et al. (2023), cited from earlier work
SIK3 = test system: SIK3; set-up: method as in Reinecke et al. (2023); details: SIK3, 5 cell line mix lysate, Kinobeads ε, ref Reinecke et al. (2023), cited from earlier work
PRKAG2 = test system: PRKAG2; set-up: method as in Reinecke et al. (2023); details: PRKAG2, 5 cell line mix lysate, Kinobeads ε, ref Reinecke et al. (2023), cited from earlier work
[1] = test system: protein expression in AsPC-1 cells; experiment: Time-dependent protein expression analysis (1 µM GEM or 1 µM ATRi, 15 min-24 h); format: cell-based, human; details: GEM
Description: Cell culture medium was replaced 24 h after seeding. […] For time point 0, AsPC-1 cells were treated with a vehicle and lysed immediately. The final DMSO concentration in all experiments was 0.2%.
LC-MS/MS measurement of non-enriched, TMT-labeled peptides from temporal drug perturbation was carried out on an Orbitrap Fusion Lumos Tribrid instrument (Thermo Scientific) coupled to a micro-flow LC system built by combining a modified Vanquish pump and the autosampler of the Dionex UltiMate 3000 nano HPLC System (Thermo Scientific). Dried peptides were reconstituted in 0.1% formic acid and loaded directly onto an Acclaim PepMap 100 C18 column (2 μm particle size, 1 mm × 150 mm, Thermo Scientific) heated at 55 °C. […] Flow rates of sheath, aux, and sweep gas were kept at 32, 5, and 0, respectively. […] The cycle time between MS1 scans was 1.2 s, with a dynamic exclusion duration of 50 s.
Peptide and protein identification and quantification of time-series raw data was performed with MaxQuant (v2.1.3.0) using the same sequence information as above, with N-terminal acetylation and oxidized methionine as variable modifications and cysteine carbamidomethylation as fixed modification. All other search parameters were set as default. The resulting proteingroups.txt file was filtered to remove potential contaminants and reversed hits. Corrected TMT reporter channel intensities were median-centered, and ratios were calculated between treatments and their respective time-point controls (Appendix Table S6). Proteins were considered conversely regulated if absolute log2 fold change > 2 by at least one drug and oppositely affected by both drugs (up/down) at 24 h.

PSN-1 cells = experiment: Drug combination viability screen (ATPlite, 72 h); format: cell-based, human; details: for EC50: Homo sapiens, PSN1;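 for AUC: area under vehicle-normalized viability curve scaled 0 to 100 percent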;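 for Curve bottom: fraction of vehicle control viability from four-parameter log-logistic fit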
Description: (§1) Cell viability was assessed by measuring ATP levels to indicate metabolic activity.
(§2) Afterward, small amounts were transferred to 384-well intermediate plates (Greiner Bio-One GmbH, Germany). […] For drug combination screening, 1000 to 5000 cells were seeded into 384-well plates (CulturPlate™, Perkin Elmer, MA, USA) using a Multidrop™ Combi Reagent Dispenser (Thermo Scientific, MA, USA) in 50 µl medium per well 24 h prior to drug treatment (seeding densities see Appendix Table S1). […] The final DMSO concentration in each well was 0.2%. […] Eight wells per plate without library drug served as negative controls, and sixteen wells per plate containing 5 µM Staurosporine served as positive controls. Control plates not containing any drug were used to correct for incubation effects, and data quality was assessed by calculation of Z-prime of positive and negative controls according to1 Z-prime=1−3SDpos+3SDneg/[…] where SD is the standard deviation. […] Dose–response curves from the experimental and hypothetical data were compared, and shifts in AUC were used to describe combination effects (AUC∆ = AUChypothetical − AUCexperimental). […] Only combinations with R^2 > 0.8 in both conditions were considered in the synergy analysis.

[2] = test system: HPDE (immortalized pancreatic duct cell line); experiment: Drug combination viability screen (ATPlite, 72 h); format: cell-based, human; details: HPDE; for EC50: Homo sapiens;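 for AUC: area under vehicle-normalized viability curve scaled 0 to 100 percent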;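 for Curve bottom: fraction of vehicle control viability from four-parameter log-logistic fit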
Description: as §1, §2

C[C@]12O[C@H](C[C@]1(O)CO)n1c3ccccc3c3c4c(c5c6ccccc6n2c5c31)CNC4=O [Lestaurtinib]
EC50 (TANK): 1.34 µM

COc1cc(N2CCC(N3CCN(C)CC3)CC2)ccc1Nc1ncc(Cl)c(Nc2ccccc2P(C)(C)=O)n1 [Brigatinib]
Kd (BTK; read-out: KDapp): 1.48 µM
EC50 (BTK): 3.78 µM
pKDapp (BTK): 5.83
EC50 (IRAK3): 1.15 µM
pKDapp (IRAK3): 6.31
Kd (IRAK3; read-out: KDapp): 0.494 µM
Kd (BCR; read-out: KDapp): 0.504 µM
EC50 (BCR): 1.05 µM
pKDapp (BCR): 6.30
EC50 (FLT4): 0.369 µM
pKDapp (FLT4): 6.43
Kd (FLT4; read-out: KDapp): 0.369 µM
Kd (FES; read-out: KDapp): 0.063 µM
EC50 (FES): 0.17 µM
pKDapp (FES): 7.20
EC50 (SIK3): 1.77 µM
pKDapp (SIK3): 5.84
Kd (SIK3; read-out: KDapp): 1.45 µM
EC50 (PRKAG2): 0.51 µM
pKDapp (PRKAG2): 6.48
Kd (PRKAG2; read-out: KDapp): 0.329 µM

Nc1ccn([C@@H]2O[C@H](CO)[C@@H](O)C2(F)F)c(=O)n1 [GEM, Gemcitabine]
Regulation_24h, CLN6 protein expression ([1]; protein CLN6): up
Regulation_24h, E2F6 protein expression ([1]; protein E2F6): up
Regulation_24h, HELZ2 protein expression ([1]; protein HELZ2): up
Regulation_24h, PRKACA protein expression ([1]; protein PRKACA): up
Regulation_24h, RASSF10 protein expression ([1]; protein RASSF10): up
EC50 (PSN-1 cells; read-out: EC50): 0.00344 µM
EC50 (PSN-1 cells; read-out: pEC50 (converted)): 0.00347 µM
Reponse (PSN-1 cells; PSN-1, R1, 13.72 nM): 1225440
Reponse (PSN-1 cells; PSN-1, R1, 41.15 nM): 969400
Reponse (PSN-1 cells; PSN-1, R1, […] nM): 806840
Reponse (PSN-1 cells; PSN-1, R1, 370.37 nM): 818640
Reponse (PSN-1 cells; PSN-1, R1, 1111.11 nM): 786440
Reponse (PSN-1 cells; PSN-1, R1, 3333.33 nM): 785720
Reponse (PSN-1 cells; PSN-1, R1, 10000 nM): 723120
Reponse (PSN-1 cells; PSN-1, replicate R2, dose 13.72 nM, raw signal): 1542400
Reponse (PSN-1 cells; PSN-1, replicate R2, dose 41.15 nM, raw signal): 1210080
Reponse (PSN-1 cells; PSN-1, replicate R2, dose 123.46 nM, raw signal): 1089000
Reponse (PSN-1 cells; PSN-1, replicate R2, dose 370.37 nM, raw signal): 1103640
Reponse (PSN-1 cells; PSN-1, replicate R2, dose 1111.11 nM, raw signal): 1004960
Reponse (PSN-1 cells; PSN-1, replicate R2, dose 3333.33 nM, raw signal): 1071400
Reponse (PSN-1 cells; PSN-1, replicate R2, dose 10000 nM, raw signal): 1052080
AUC (PSN-1 cells; PSN-1, GEM curve fit): 35.4%
Curve bottom (PSN-1 cells; PSN-1, GEM curve fit): 0.11
Curve effect size (PSN-1 cells; PSN-1, GEM curve fit): 0.89
Curve slope (PSN-1 cells; PSN-1, GEM curve fit): 2.16
Curve top (PSN-1 cells; PSN-1, GEM curve fit): 1.03
Reponse ([2]; R1, 13.72 nM): 2430360
Reponse ([2]; R1, 41.15 nM): 2458400
Reponse ([2]; R1, […] nM): 2746800
Reponse ([2]; R1, 370.37 nM): 2410520
Reponse ([2]; R1, 1111.11 nM): 2265000
Reponse ([2]; R1, 3333.33 nM): 1887440
Reponse ([2]; R1, 10000 nM): 1259640
Reponse ([2]; R2, 13.72 nM): 3059000
Reponse ([2]; R2, 41.15 nM): 2844720
Reponse ([2]; R2, […] nM): 2708840
Reponse ([2]; R2, 370.37 nM): 2516400
Reponse ([2]; R2, 1111.11 nM): 2343080
Reponse ([2]; R2, 3333.33 nM): 1957840
Reponse ([2]; R2, 10000 nM): 1504480
Curve bottom ([2]; GEM curve fit): 0.27
Curve effect size ([2]; GEM curve fit): 0.73
Curve slope ([2]; GEM curve fit): 1.67
Curve top ([2]; GEM curve fit): 1.00
AUC ([2]; GEM curve fit, in %): 48.78
EC50 ([2]; read-out: EC50): 0.00434 µM
EC50 ([2]; read-out: pEC50 (converted)): 0.00437 µM
